Experimental data: patent US20120234256A1, “[…] DEVICE” (priority 2009, published 2012)

What was measured:
[1] = system: persistent and neuropathic pain; conditions: animal studies; cited from earlier work
human neuropathic pain = conditions: in the clinic; cited from earlier work
[2] = system: rats with formalin injection into one hindpaw; test: Mechanical conflict device (MCD) test, inflammatory pain from formalin injection into one hindpaw; format: in vivo, rat; conditions: formalin 0.2%, s.c. into one hindpaw, morphine 2.5 mg/kg i.p.
Text: (§1) The mechanical conflict device can be used in various methods. With reference now to FIGS. 3-7, the MCD 10 of the present technology can be used to measure the response of a laboratory animal 17, such as a rat, to noxious mechanical stimuli. In this test, exit or escape from an aversive environment to a preferred environment is deterred by a noxious mechanical stimulus represented by the pins 60 on a raised pin platform 80, as shown in FIG. 6. In an initial MCD 10 training period, the pins 60 are lowered below the alley floor 50 and the laboratory animal 17 is placed into the holding compartment 20. […] The holding compartment 20 and the alley compartment 30 can be illuminated with normal room lighting. In some embodiments, the holding compartment 20 and/or the alley compartment 30 are supplemented by a light source 220, for example, a high-intensity, white-light LED array positioned above the alley compartment 30, as shown in FIGS. 3-6. At that time, panel walls 110 and 120 can be raised to allow the laboratory animal 17 to learn that it can exit from the mildly aversive stimuli (the light 220) in the holding compartment 20 and alley compartment 30 and move across the floor 50, passing into the more comfortable compensatory compartment 40 where it is generally dim and provides the laboratory animal 17 with a generally more rewarding area. […]

CCI rats = test: Mechanical conflict device (MCD) test, neuropathic pain from chronic constriction injury (CCI) of the left sciatic nerve; format: in vivo, rat; conditions: pregabalin 10 and 30 mg/kg, i.p.
Text: as §1

COc1ccccc1CN(C[C@@H](Cc1c[nH]c2ccccc12)NC(=O)CN1CCC(N2CCCCC2)CC1)C(C)=O [LY 303870]
Relief of persistent and neuropathic pain [1]: did relieve persistent and neuropathic pain | Analgesia against human neuropathic pain (human neuropathic pain): failed

CN1CC[C@]23c4c5ccc(O)c4O[C@H]2[C@@H](O)C=C[C@H]3[C@H]1C5 [morphine]
Increased latency to exit produced by formalin injection ([2]; FIG. 14): not reduced | Increased time spent on the stimulus array produced by formalin injection ([2]; FIG. 15): attenuated

CC(C)C[C@H](CN)CC(=O)O [pregabalin]
Latency to exit (light chamber) (CCI rats; FIG. 12): modulated | Time spent on the stimulus array (CCI rats; FIG. 13): not modulated
